Measured values published in PMC9150124, “Design of a Potent, Selective, and Brain-Penetrant Inhibitor of Wnt-Deactivating Enzyme Notum by Optimization of a Crystallographic Fragment Hit” (Journal of Medicinal Chemistry, 2022).

Tests used:
Experiment in all cases: SelectScreen kinase profiling, SSBK ZLyte SP Technology
Type in all cases: biochemical
[1] = biological target: kinase named in conditions (Homo sapiens, UniProt O14965); conditions: AURKA (Aurora A), 10 μM
Protocol: (§1) Kinase selectivity screening was performed by Thermo Fisher Scientific (Paisley, U.K.) in their SelectScreen Biochemical Kinase Profiling Service. Assay information and data are presented in the Supporting Information.
(§2) Kinase selectivity screening was performed by ThermoFisher Scientific (Paisley, U.K.) in their SelectScreenTM
(§3) Biochemical Kinase Profiling service .

[2] = biological target: kinase named in conditions (Homo sapiens, UniProt O43781); conditions: DYRK3, 10 μM
Protocol: as §1, §2, §3

[3] = biological target: kinase named in conditions (Homo sapiens, UniProt O60674, V617F); conditions: JAK2 JH1 JH2 V617F, 10 μM
Protocol: as §1, §2, §3

[4] = biological target: kinase named in conditions (Homo sapiens, UniProt O75582); conditions: RPS6KA5 (MSK1), 10 μM
Protocol: as §1, §2, §3

[5] = biological target: kinase named in conditions (Homo sapiens, UniProt P00519); conditions: ABL1, 10 μM
Protocol: as §1, §2, §3

[6] = biological target: kinase named in conditions (Homo sapiens, UniProt P00533, L861Q); conditions: EGFR (ErbB1) L861Q, 10 μM
Protocol: as §1, §2, §3

[7] = biological target: kinase named in conditions (Homo sapiens, UniProt P07333); conditions: CSF1R (FMS), 10 μM
Protocol: as §1, §2, §3

[8] = biological target: kinase named in conditions (Homo sapiens, UniProt P07947); conditions: YES1, 10 μM
Protocol: as §1, §2, §3

[9] = biological target: kinase named in conditions (Homo sapiens, UniProt P07948); conditions: LYN A, 10 μM
Protocol: as §1, §2, §3

[10] = biological target: kinase named in conditions (Homo sapiens, UniProt P08069); conditions: IGF1R, 10 μM
Protocol: as §1, §2, §3

[11] = biological target: kinase named in conditions (Homo sapiens, UniProt P08922); conditions: ROS1, 10 μM
Protocol: as §1, §2, §3

[12] = biological target: kinase named in conditions (Homo sapiens, UniProt P27361); conditions: MAPK3 (ERK1), 10 μM
Protocol: as §1, §2, §3

[13] = biological target: kinase named in conditions (Homo sapiens, UniProt P27448); conditions: MARK3, 10 μM
Protocol: as §1, §2, §3

[14] = biological target: kinase named in conditions (Homo sapiens, UniProt P29317); conditions: EPHA2, 10 μM
Protocol: as §1, §2, §3

[15] = biological target: kinase named in conditions (Homo sapiens, UniProt P31749); conditions: AKT1 (PKB alpha), 10 μM
Protocol: as §1, §2, §3

[16] = biological target: kinase named in conditions (Homo sapiens, UniProt P36888); conditions: FLT3, 10 μM
Protocol: as §1, §2, §3

[17] = biological target: kinase named in conditions (Homo sapiens, UniProt P36896); conditions: ACVR1B (ALK4), 10 μM
Protocol: as §1, §2, §3

[18] = biological target: kinase named in conditions (Homo sapiens, UniProt P41743); conditions: PRKCI (PKC iota), 10 μM
Protocol: as §1, §2, §3

[19] = biological target: kinase named in conditions (Homo sapiens, UniProt P51451); conditions: BLK, 10 μM
Protocol: as §1, §2, §3

[20] = biological target: kinase named in conditions (Homo sapiens, UniProt P51817); conditions: PRKX, 10 μM
Protocol: as §1, §2, §3

[21] = biological target: kinase named in conditions (Homo sapiens, UniProt P54762); conditions: EPHB1, 10 μM
Protocol: as §1, §2, §3

[22] = biological target: kinase named in conditions (Homo sapiens, UniProt Q05513); conditions: PRKCZ (PKC zeta), 10 μM
Protocol: as §1, §2, §3

[23] = biological target: kinase named in conditions (Homo sapiens, UniProt Q05655); conditions: PRKCD (PKC delta), 10 μM
Protocol: as §1, §2, §3

[24] = biological target: kinase named in conditions (Homo sapiens, UniProt Q13188); conditions: STK3 (MST2), 10 μM
Protocol: as §1, §2, §3

[25] = biological target: kinase named in conditions (Homo sapiens, UniProt Q13882); conditions: PTK6 (Brk), 10 μM
Protocol: as §1, §2, §3

[26] = biological target: kinase named in conditions (Homo sapiens, UniProt Q14164); conditions: IKBKE (IKK epsilon), 10 μM
Protocol: as §1, §2, §3

[27] = biological target: kinase named in conditions (Homo sapiens, UniProt Q16566); conditions: CAMK4 (CaMKIV), 10 μM
Protocol: as §1, §2, §3

[28] = biological target: kinase named in conditions (Homo sapiens, UniProt Q8IU85); conditions: CAMK1D (CaMKI delta), 10 μM
Protocol: as §1, §2, §3

[29] = biological target: kinase named in conditions (Homo sapiens, UniProt Q8IW41); conditions: MAPKAPK5 (PRAK), 10 μM
Protocol: as §1, §2, §3

[30] = biological target: kinase named in conditions (Homo sapiens, UniProt Q96SB4); conditions: SRPK1, 10 μM
Protocol: as §1, §2, §3

[31] = biological target: kinase named in conditions (Homo sapiens, UniProt Q9H3Y6); conditions: SRMS (Srm), 10 μM
Protocol: as §1, §2, §3

[32] = biological target: kinase named in conditions (Homo sapiens, UniProt Q9NR20); conditions: read-out: % Inhibition mean
Protocol: as §1, §2, §3

[33] = biological target: kinase named in conditions (Homo sapiens, UniProt Q9P0L2); conditions: MARK1 (MARK), 10 μM
Protocol: as §1, §2, §3

[34] = biological target: kinase named in conditions (Homo sapiens, UniProt Q9UL54); conditions: TAOK2 (TAO1), 10 μM
Protocol: as §1, §2, §3

[35] = biological target: kinase named in conditions (Homo sapiens, UniProt Q9Y243); conditions: AKT3 (PKB gamma), 10 μM
Protocol: as §1, §2, §3

Chain of kinase named in conditions (Homo sapiens, UniProt P08069) (P08069 31-1367): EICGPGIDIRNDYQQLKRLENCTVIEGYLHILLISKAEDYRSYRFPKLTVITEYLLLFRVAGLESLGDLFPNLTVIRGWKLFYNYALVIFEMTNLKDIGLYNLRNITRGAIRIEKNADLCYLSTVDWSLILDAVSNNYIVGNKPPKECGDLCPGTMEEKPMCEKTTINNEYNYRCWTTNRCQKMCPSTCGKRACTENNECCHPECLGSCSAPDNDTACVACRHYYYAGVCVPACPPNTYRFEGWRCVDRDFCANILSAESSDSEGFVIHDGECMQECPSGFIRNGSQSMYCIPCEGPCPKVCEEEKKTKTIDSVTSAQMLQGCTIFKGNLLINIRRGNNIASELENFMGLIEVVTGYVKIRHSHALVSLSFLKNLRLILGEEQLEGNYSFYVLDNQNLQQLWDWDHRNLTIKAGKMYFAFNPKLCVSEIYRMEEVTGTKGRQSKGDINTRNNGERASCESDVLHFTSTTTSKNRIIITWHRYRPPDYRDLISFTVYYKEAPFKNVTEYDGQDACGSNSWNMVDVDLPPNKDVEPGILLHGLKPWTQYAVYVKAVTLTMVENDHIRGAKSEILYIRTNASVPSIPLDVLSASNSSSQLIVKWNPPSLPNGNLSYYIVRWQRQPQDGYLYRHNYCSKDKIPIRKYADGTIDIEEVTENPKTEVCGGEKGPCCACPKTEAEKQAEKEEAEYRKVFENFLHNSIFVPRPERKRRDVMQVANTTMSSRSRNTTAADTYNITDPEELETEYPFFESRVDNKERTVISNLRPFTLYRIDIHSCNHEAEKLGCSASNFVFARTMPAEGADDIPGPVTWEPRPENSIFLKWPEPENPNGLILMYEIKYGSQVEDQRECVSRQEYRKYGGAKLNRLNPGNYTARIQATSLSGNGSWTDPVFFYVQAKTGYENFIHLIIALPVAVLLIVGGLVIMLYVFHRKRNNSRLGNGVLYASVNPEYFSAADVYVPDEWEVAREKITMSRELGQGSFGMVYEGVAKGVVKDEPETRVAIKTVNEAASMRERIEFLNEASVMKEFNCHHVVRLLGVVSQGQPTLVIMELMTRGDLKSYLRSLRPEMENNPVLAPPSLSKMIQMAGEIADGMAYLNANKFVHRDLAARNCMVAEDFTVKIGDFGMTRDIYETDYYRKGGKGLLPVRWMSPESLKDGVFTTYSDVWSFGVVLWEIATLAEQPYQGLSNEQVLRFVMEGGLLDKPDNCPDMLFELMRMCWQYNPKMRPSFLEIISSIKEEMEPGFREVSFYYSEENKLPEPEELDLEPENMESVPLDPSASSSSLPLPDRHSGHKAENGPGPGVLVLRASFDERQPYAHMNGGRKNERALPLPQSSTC
Chain of kinase named in conditions (Homo sapiens, UniProt P07947) (P07947 whole entry): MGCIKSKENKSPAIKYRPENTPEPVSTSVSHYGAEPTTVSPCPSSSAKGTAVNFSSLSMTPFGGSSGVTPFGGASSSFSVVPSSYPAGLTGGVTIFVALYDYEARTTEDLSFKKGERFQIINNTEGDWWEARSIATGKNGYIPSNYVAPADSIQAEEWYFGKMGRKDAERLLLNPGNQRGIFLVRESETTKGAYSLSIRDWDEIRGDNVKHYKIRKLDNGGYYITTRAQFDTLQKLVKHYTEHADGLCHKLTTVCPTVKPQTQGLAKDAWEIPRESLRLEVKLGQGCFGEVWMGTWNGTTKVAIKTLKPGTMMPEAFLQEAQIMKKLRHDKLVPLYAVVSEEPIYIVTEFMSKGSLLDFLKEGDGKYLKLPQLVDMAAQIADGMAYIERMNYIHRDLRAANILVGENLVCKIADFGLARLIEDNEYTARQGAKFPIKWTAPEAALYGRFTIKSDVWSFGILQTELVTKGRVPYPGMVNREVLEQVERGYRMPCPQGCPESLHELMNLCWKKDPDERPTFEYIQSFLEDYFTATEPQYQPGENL
Chain of kinase named in conditions (Homo sapiens, UniProt P00519) (P00519 whole entry): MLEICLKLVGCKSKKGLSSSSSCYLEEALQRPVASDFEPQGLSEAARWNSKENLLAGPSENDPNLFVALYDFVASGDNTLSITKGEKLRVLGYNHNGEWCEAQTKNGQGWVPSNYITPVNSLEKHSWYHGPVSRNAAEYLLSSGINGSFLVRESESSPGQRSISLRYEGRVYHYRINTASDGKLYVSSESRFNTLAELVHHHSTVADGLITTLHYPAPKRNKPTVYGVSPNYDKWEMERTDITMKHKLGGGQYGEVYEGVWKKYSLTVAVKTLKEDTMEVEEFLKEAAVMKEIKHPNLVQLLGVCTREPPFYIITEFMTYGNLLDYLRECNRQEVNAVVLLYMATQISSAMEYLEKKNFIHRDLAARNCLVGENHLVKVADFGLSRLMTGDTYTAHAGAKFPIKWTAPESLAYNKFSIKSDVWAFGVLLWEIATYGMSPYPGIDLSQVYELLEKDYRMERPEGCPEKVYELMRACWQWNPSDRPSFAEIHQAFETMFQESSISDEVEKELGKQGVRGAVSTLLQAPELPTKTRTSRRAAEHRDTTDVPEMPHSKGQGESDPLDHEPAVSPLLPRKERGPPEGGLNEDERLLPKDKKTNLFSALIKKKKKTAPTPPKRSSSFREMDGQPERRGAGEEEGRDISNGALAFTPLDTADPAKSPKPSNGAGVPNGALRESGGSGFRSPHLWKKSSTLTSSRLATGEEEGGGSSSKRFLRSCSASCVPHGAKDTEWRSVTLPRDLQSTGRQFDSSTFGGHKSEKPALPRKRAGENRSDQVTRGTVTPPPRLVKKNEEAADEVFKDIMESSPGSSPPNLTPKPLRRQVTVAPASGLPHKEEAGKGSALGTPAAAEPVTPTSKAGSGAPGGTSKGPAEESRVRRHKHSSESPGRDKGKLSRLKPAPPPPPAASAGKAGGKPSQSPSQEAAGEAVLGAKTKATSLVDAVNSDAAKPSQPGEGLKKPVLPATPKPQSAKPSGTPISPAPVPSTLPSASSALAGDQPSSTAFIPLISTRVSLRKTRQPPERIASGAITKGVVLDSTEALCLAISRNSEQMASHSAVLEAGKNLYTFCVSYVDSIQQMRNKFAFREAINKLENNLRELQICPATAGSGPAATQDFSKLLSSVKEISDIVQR
Chain of kinase named in conditions (Homo sapiens, UniProt P00533, L861Q) (P00533 25-1210 L861Q): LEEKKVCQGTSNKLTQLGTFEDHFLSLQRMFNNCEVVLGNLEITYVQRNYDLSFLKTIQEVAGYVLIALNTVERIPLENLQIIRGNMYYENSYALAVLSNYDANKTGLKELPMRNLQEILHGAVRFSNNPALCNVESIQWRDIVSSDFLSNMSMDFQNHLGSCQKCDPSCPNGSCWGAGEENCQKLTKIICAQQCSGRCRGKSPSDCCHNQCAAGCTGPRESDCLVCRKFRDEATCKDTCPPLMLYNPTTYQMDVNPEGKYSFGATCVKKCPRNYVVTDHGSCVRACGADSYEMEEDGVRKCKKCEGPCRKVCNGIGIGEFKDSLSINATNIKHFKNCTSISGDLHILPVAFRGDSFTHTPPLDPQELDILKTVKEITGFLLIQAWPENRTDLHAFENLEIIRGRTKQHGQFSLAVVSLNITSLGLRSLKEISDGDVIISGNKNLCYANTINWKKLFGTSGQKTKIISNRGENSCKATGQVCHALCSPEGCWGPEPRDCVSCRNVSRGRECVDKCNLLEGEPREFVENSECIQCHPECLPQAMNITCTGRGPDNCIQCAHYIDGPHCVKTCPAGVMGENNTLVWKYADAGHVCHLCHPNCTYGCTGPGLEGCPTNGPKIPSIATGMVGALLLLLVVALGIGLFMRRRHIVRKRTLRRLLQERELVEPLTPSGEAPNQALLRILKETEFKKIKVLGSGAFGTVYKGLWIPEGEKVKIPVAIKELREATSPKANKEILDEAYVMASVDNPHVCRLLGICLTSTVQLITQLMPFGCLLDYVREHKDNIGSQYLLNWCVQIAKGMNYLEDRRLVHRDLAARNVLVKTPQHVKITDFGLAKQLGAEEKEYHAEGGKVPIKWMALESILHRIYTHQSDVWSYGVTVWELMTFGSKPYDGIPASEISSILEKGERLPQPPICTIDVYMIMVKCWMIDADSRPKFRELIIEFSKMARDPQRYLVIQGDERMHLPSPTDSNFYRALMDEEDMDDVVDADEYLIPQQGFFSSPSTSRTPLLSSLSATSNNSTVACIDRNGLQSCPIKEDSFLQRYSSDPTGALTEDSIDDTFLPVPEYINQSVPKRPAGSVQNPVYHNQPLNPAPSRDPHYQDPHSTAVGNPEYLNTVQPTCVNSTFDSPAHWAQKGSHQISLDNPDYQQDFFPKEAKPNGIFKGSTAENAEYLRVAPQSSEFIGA
Chain of kinase named in conditions (Homo sapiens, UniProt P41743) (P41743 whole entry): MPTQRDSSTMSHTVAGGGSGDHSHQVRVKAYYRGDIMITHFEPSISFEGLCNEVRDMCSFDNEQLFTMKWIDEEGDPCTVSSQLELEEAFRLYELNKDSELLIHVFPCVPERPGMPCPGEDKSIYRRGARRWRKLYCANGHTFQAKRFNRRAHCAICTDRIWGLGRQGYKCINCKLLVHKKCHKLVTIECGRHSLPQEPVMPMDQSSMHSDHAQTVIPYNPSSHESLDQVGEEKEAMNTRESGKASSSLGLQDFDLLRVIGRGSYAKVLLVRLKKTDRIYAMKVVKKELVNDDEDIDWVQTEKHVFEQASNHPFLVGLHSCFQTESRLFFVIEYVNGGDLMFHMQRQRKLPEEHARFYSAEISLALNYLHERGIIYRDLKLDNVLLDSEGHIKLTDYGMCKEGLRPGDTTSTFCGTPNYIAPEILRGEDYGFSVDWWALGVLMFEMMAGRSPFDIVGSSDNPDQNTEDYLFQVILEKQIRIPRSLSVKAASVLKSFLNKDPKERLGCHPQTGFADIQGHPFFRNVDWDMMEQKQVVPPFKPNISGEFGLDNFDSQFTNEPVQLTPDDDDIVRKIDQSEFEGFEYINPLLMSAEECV

`FC(F)(F)c1c(Cl)ccc(-n2ccnn2)c1Cl` [8l, 1-(2,4-Dichloro-3-(trifluoromethyl)phenyl)-1H-1,2,3-triazole] was tested, and the inhibition at 10 µM [1] was 4%, the inhibition at 10 µM [2] was 1% and the inhibition at 10 µM [3] was -4%. The inhibition at 10 µM [4] was 9%, the inhibition at 10 µM [5] was 19% and the inhibition at 10 µM [6] was 0%. It also gave an inhibition at 10 µM [7] of 6%, an inhibition at 10 µM [8] of 3% and an inhibition at 10 µM [9] of -1%. It also gave an inhibition at 10 µM [10] of -4%, an inhibition at 10 µM [11] of 9% and an inhibition at 10 µM [12] of 4%. The inhibition at 10 µM [13] was 3%, the inhibition at 10 µM [14] was 9% and the inhibition at 10 µM [15] was 7%. The inhibition at 10 µM [16] was 15%, the inhibition at 10 µM [17] was -12% and the inhibition at 10 µM [18] was 4%. The inhibition at 10 µM [19] was 2%, the inhibition at 10 µM [20] was 6% and the inhibition at 10 µM [21] was 3%. For the same compound, the inhibition at 10 µM [22] was 23%, the inhibition at 10 µM [23] was -4% and the inhibition at 10 µM [24] was -9%. The inhibition at 10 µM [25] was 6%, the inhibition at 10 µM [26] was 11% and the inhibition at 10 µM [27] was 15%. It also gave an inhibition at 10 µM [28] of 1%, an inhibition at 10 µM [29] of 6% and an inhibition at 10 µM [30] of 2%. For the same compound, the inhibition at 10 µM [31] was 10%, the inhibition at 10 µM [32] was 1% and the inhibition at 10 µM [33] was -1%. The inhibition at 10 µM [34] was -8% and the inhibition at 10 µM [35] was 3%.
